In patent US9078890B2, “Use of koumine and its homologues in preparation of medicament for treatment of autoimmune diseases of involved bones and joints” (priority 2011, dated 2015):
Marks after values point to notes of the source that are not given here.

Legend:
[1] = test system: type II collagen-induced arthritis rat; assay: Type II collagen-induced arthritis rat: thermal hyperalgesia (thermal withdrawal latency); assay type: in vivo, Wistar rat; conditions: amethopterin 1 mg/kg once every 3 days
Method: (§1) Under aseptic conditions, 10 mg chicken type II collagen protein was fully mixed with 5 ml 10 mM glacial acetic acid solution, and stirred overnight in refrigerator at 4° C. to fully dissolve it. It was mixed with complete Freund's adjuvant in equal volume in ice bath to fully emulsify into an emulsion with a collagen concentration of 1 mg/ml.
(§2) Wistar rats are divided into a modeling group and a false modeling group. After the modeling group rats were narcotized with intraperitoneal injection of pentobarbital, the above emulsion was injected intracutaneously at 3 to 4 positions at back, tail root or the like, 0.3 ml for each, an primary immunity was carried out. After 7 days, a secondary immunity was carried out, the emulsifying agent complete Freund's adjuvant of initial immunity was replaced with incomplete Freund's adjuvant, 0.1 ml the emulsion was injected under sevoflurane inhalation anesthesia wherein the injection position is different from the last time. In false modeling group, the emulsion was replaced with solvent glacial acetic acid solution.
(§3) Successfully modeled rat in the modeling group were randomly divide into 5 groups: low, middle, high-dose koumine treatment group, positive control group, negative control group, 10 rats for each group. Beginning from Day 21 after modeling, corresponding intervention was carried out as following in 10 days continuously: 0.6, 3, 15 mg/kg koumine were intragastrically administrated to the low, middle, high-dose koumine treatment group respectively, 1 time every day; 1 mg/kg amethopterin was administrated to the positive control group, 1 time every 3 days, equal volume of physiological saline was administrated for the remained days; equal volume of physiological saline was administrated to the negative control group.
1 hour after intragastric administration, the thermal withdrawal latency of each group was determined by the photo-thermal dolorimeter; the mechanical pain threshold of rats of each group was determined by Von-frey electromechanical pain threshold detector, thus the condition of thermal hyperalgesia and mechanical hyperalgesia of rats of each group was observed.

[2] = test system: type II collagen-induced arthritis rat; assay: Type II collagen-induced arthritis rat: condition and body weight; assay type: in vivo, Wistar rat
Method: as §1, §2, §3

adjuvant arthritis mice = assay: Adjuvant arthritis mice: hyperalgesia (phlogogenic paw thermal withdrawal latency); assay type: in vivo, Kunming mice
Method: BCG was inactivated in water bath at 80° C., and fully emulsified along with complete Freund's adjuvant to form complete Freund's adjuvant emulsion containing 5 mg/ml BCG, preserved at 4° C., and shake well before use. The Kunming mice were divided into a modeling group and a false modeling group. According to the method recited in the literature [Rasool M, Sabina E P, Lavanya B. Anti-inflammatory effect of Spirulina fusiformis on adjuvant-induced arthritis in mice. Biol Pharm Bull. 2006, 29(12):2483-7], for the modeling group, the model was prepared by intradermal injection of 20 ul the emulsion under the plantar surface of right paws after the mice was narcotized; for the false modeling group, the emulsion was replaced with physiological saline. For the modeling group, the animals were screened on Day 8 after injection: the mice with the injected paw thickness increased >0.5 mm and thermal hyperalgesia occurred (paw thermal withdrawal latency <8 second) were selected as experimental subjects. The selected mice were divided into 5 groups randomly: low, middle, high dose treatment group (0.8, 4, 20 mg/kg); indomethacin positive control group (10 mg/kg); negative control group (physiological saline), each comprising 12 animals. Day 8 after inflammation, intragastric administration was carried out on each group to give corresponding intervention, one time per day for 10 days continuously.
30 min after intragastric administration, the phlogogenic paw thermal withdrawal latency of the mice in each group was determined by photo-thermal dolorimeter to reflect animals' hyperalgesia status.

Row | SMILES | Thermal stimulus withdrawal latency, Before intervention ([1]; before intervention) | Thermal stimulus withdrawal latency, Intervention Day 2 ([1]; intervention Day 2) | Thermal stimulus withdrawal latency, Intervention Day 4 ([1]; intervention Day 4) | Thermal stimulus withdrawal latency, Intervention Day 6 ([1]; intervention Day 6) | Thermal stimulus withdrawal latency, Intervention Day 8 ([1]; intervention Day 8) | Thermal stimulus withdrawal latency, Intervention Day 10 ([1]; intervention Day 10) | Body weight after intervention, Day 7 ([2]; amethopterin 1 mg/kg once every 3 days from Day 21, Day 7) | Body weight after intervention, Day 14 ([2]; amethopterin 1 mg/kg once every 3 days from Day 21, Day 14) | Body weight after intervention, Day 21 ([2]; amethopterin 1 mg/kg once every 3 days from Day 21, Day 21) | Body weight after intervention, Day 31 ([2]; amethopterin 1 mg/kg once every 3 days from Day 21, Day 31) | Body weight before intervention ([2]; amethopterin 1 mg/kg once every 3 days, from Day 21 after modeling for 10 days, before intervention) | Thermal stimulus withdrawal latency, Before intervention (adjuvant arthritis mice; indomethacin 10 mg/kg intragastric once daily for 10 days from Day 8 after inflammation, before intervention) | Thermal stimulus withdrawal latency, Intervention Day 4 (adjuvant arthritis mice; indomethacin 10 mg/kg intragastric once daily from Day 8, Day 4) | Thermal stimulus withdrawal latency, Intervention Day 8 (adjuvant arthritis mice; indomethacin 10 mg/kg intragastric once daily from Day 8, Day 8) | Thermal stimulus withdrawal latency, Intervention Day 12 (adjuvant arthritis mice; indomethacin 10 mg/kg intragastric once daily from Day 8, Day 12) | Thermal stimulus withdrawal latency, Intervention Day 16 (adjuvant arthritis mice; indomethacin 10 mg/kg intragastric once daily from Day 8, Day 16) | Thermal stimulus withdrawal latency, Intervention Day 18 (adjuvant arthritis mice; indomethacin 10 mg/kg intragastric once daily from Day 8, Day 18)
1 | CN(Cc1cnc2nc(N)nc(N)c2n1)c1ccc(C(=O)N[C@@H](CCC(=O)O)C(=O)O)cc1 [Positive control group, Amethopterin, reference compound] | 8.05 ± 1.01 s | 8.48 ± 0.73 s | 9.15 ± 0.57**^★★ second | 9.27 ± 1.09**^★ second | 9.50 ± 1.08**^★★ second | 10.31 ± 1.21**^★ second | 154.5 ± 8.36 g | 178.2 ± 5.93 g | 203.1 ± 9.11 g | 227.0 ± 12.68 g | 129.8 ± 6.21 g | – | – | – | – | – | –
2 | COc1ccc2c(c1)c(CC(=O)O)c(C)n2C(=O)c1ccc(Cl)cc1 [Positive control, Indomethacin, reference compound] | – | – | – | – | – | – | – | – | – | – | – | 13.8 ± 1.2 s | 5.9 ± 1.1^★★ second | 4.1 ± 0.8^★★ second | 8.9 ± 0.9**^★ second | 9.8 ± 1.6**^★ second | 10.1 ± 1.2**^★★ second
